From patent US6683105B2 (priority 1997, dated 2004)
“Also recorded” adds a separate entry of the source.

How the values were obtained:
human plasma BChE = molecular target: T1, human plasma BChE (Homo sapiens, UniProt P06276); assay: BChE inhibition, IC(50) by logit plot; format: biochemical; conditions: BChE compared with AChE
T1 construct: human plasma BChE; from tissue; host or cells: human plasma
Procedure: The IC (50) values can be determined for such inhibitors using methods well known in the art. In such assay the pharmacological activity of each compound, as an IC (50), defined as the concentration, in nanomoles, required to inhibit 50% of the enzyme activity of AChE and BChE, is determined separately. For determination of IC (50) values, the enzyme activity of each concentration was expressed as a percent of that determined in the absence of each compound. This then was transformed into a logit format, where logit=In (% activity/[100-% activity]), and was plotted as a function of the log concentration of the compound. IC (50) values (i.e., logit=In (50/[100−5O]=0) were determined only from correlation coefficients (r^2) of less than −0.985 and when more than 50% inhibition was achieved from duplicate samples. The selectivity ratio is then determined by comparing the IC (50) values obtained for each compound with AChE to that for BChE.

[1] = tested on: βAPP secretion, glioblastoma, HeLa, neuroblastoma and PCI2 cell lines; conditions: neuronal cells treated with cholinesterase inhibitors; cited from earlier work
[2] = Brain and plasma time-dependent kinetics by HPLC; format: in vivo; conditions: rat
Procedure: Determination of the brain and plasma time-dependent kinetics of cymserine in the rats is undertaken by administering compound into the saphenous vein of anesthetized animals. Animals are killed by excess anesthetic at specific times and blood and brain samples are immediately taken. The blood is centrifuged (10,000 g, 2 min), plasma is collected and, together with the sample of brain, is stored at −80° C. Quantitation of concentrations of cymserine is undertaken by high performance liquid chromatography.

[3] = tested on: aged Fischer-344 (F344) rats; assay: 14-unit T-maze (Stone maze) learning; format: in vivo, rat
Text: In the present study we assessed the effects of chronic cymserine treatment (5 days) on performance of aged Fischer-344 (F344) rats (21-22 months old) in a 14-unint T-maze, referre to as the Stone maze.
(§1) Male F344 rats 21-22 months old were obtained from Harlan-Sprague-Dawley under contract from the National Institute on Aging. They were maintained two per cage in a vivarium at the Gerontology Research Center under specific pathogen free conditions as characterized previously.
(§2) As previously described, the Stone maze is constructed of translucent plastic with a grid floor wired for scrambled foot shocks and is surrounded by gray walls to reduce availability of extra-maze cues. The only other apparatus was a straight runway (2 m) used for pretraining. Similar to the maze, the runway was also constructed of translucent plastic, and contained a grid floor wired for scrambled foot shocks, and was surrounded by gray walls.
(§3) […] On days 3-5 injections were made 30 min prior to behavioral testing.
Rats received training in the Stone maze scheduled as a 4-trial session during the morning and afternoon on days 4 and 5. During each trial, the rat had to locomote from a start box to a goal box through five maze segments each separated by guiiltine doors. The reinforcement contingency required the rat to negotiate each segment within 10 s to avoid the onset of mild foot shock (0.8 mA), which was terminated when the animal moved through the door into the next segment. After entry into succeeding segments, the door from the preceding segment was closed to prevent backtracking. Recorded as deviations from the correct pathway, errors were the primary dependent variable and were counted automatically by a series of infrared sensors connected to a microprocessor. Run time from the start box to the goal was also recorded automatically. The frequency and duration of foot shock were recorded on a mechanically operated clock.

[4] = tested on: aged Fischer-344 (F344) rats; assay: One-way active avoidance pretraining in straight runway; format: in vivo, rat; conditions: for mean (s.e.m.) avoidances: pretraining, i.p. daily
Text: as §1, §2, §3
Beginning on day 2 rats were provided training in one-way active avoidance in the straight runway. On each trial, the rat had to locomote from the start box to the goal box within 10 s to avoid the onset of foot shock (0.8 mA). Rats received 10 trials on day 2 and 10 trials on day 3. Training was terminated when the rat met a performance criteria of eight avoidances within 10 consecutive trials within a maximum of 30 trials. Only rats meeting this criterion were tested in the Stone maze on the next day.

[5] = tested on: βAPP in human neuroblastoma cell lines; assay: Cellular and secreted βAPP levels by immunoblot; format: cell-based
Procedure: In further studies, the actions of selective AChE (Compounds 2, 3, (phenserine and tolserine) Table 1) and BChE (Compound 4 (cymserine), Table 1) inhibitors were assessed against human neuroblastoma cell lines. Both secreted levels, measured in the conditioned medium, and cellular levels of βAPP, measured in the cell lysates, were assessed and compared to levels achieved in untreated cells.
A methodology that can be employed to determine the ability of a selected compound to regulate cellular and secreted βAPP levels is as follows:
1 to 1.5×10^7 of each cell type (neuronal and non-neuronal) are cultured in their respective medium. Before adding drug, the cells are fed with media containing only 0.5% of FBS (low serum). The cells are then incubated either in the absence or presence of the test compound. Following incubation periods from 12 to 48 hours, the conditioned medium from each plate is collected and both it and the cells are centrifuged at 800 g. for 10 minutes. The conditioned medium is collected and the cells lysed in buffer containing 50 mM Tris-Cl (pH 8.0), 150 mM NaCl, 5 mM EDTA, 2 mM PMSF, 0.5% sodium deoxycholate, 1 ug/ml each of aprotonin, leupeptin and TLCK, and 0.1 ug/ml of pepstatin A. The cells are centrifuged for 10 min at 11,000 g at 4° C. Proteins of the supernatant solution (cell lysate) are measured by the Bradford dye-binding procedure (Bradford, Anal. Biochem. 72: 248-254, 1976).
For polyacrylamide gel electrophoresis and immunoblotting: in control experiments, an equivalent concentration of ethanol was used as a vehicle which is less than 1% in media. Compound dosages of from about 0.15 mM to 0.5 mM may be used. 100 uL of conditioned media or 30 ug of protein from the total cell lysate is separated on a 12% polyacrylamide gel containing SDS (SDS-PAGE). Immunoblot analysis was performed using the avidinbiotyinylated complex detection kit of Vector Laboratories as described by Lahiri, et al., J. Neurosci: Res. 12:777-787 (1994). The antisera employed is from the mAb22C11 clone (Boehringer Mannheim) which recognizes all mature forms of βAPP found in cell membranes as well as the carboxyltruncated soluble forms secreted into the conditioned media and the APP-like protein. Additionally, the mAb6E10 is employed which recognizes residues 1 to 28 of Aβ. […] Biotinylated secondary antibodies, horse anti-mouse and goat anti-rabbit (Boehringer Mannheim, and Vector Labs) are also used.

secreted βAPP in CSF = assay: CSF βAPP in rats with or without forebrain cholinergic (nbM) lesions; format: in vivo, rat
Text: Cymserine, a representative of selective BChE inhibitors, additionally alters βAPP synthesis/processing in vivo.
A methodology that can be employed to determine the ability of a selected compound to regulate secreted βAPP levels in vivo is as follows:
For forebrain cholinergic system lesions, rats receive a unilateral subcortical lesion of the nucleus basalis of Meynert (nbM) using N-methyl-D-aspartate (NMDA) as an excitotoxin. In undertaking this, rats are anesthetized and placed in a stereotaxic apparatus with the upper incisor bar set level with the intra-aural line. A 33 gauge infusion cannula is lowered into two sites within the nbM on one side of the brain (AP bregma, ML −2.8 mm, DV −8.0 mm re: skull and AP bregma −0.8 mm, ML −3.0 mm, DV −7.8 mm, respectively). One microliter of a solution of 50 mM NMDA in PBS buffer (physiological pH) is slowly infused into each site. Controls for the lesion are vehicle alone and the contralateral side of NMDA treated animals.
Collection of CSF for analysis of βAPP levels is undertaken by withdrawal of an aliquot from the cistern magna of rats immediately following their death. Quantitation of βAPP is undertaken by immunoblot analysis utilizing mAb22C11.

[6] = 1.0 mg kg, blocks 3 and 4 vs controls

T1 sequence (P06276 29-602): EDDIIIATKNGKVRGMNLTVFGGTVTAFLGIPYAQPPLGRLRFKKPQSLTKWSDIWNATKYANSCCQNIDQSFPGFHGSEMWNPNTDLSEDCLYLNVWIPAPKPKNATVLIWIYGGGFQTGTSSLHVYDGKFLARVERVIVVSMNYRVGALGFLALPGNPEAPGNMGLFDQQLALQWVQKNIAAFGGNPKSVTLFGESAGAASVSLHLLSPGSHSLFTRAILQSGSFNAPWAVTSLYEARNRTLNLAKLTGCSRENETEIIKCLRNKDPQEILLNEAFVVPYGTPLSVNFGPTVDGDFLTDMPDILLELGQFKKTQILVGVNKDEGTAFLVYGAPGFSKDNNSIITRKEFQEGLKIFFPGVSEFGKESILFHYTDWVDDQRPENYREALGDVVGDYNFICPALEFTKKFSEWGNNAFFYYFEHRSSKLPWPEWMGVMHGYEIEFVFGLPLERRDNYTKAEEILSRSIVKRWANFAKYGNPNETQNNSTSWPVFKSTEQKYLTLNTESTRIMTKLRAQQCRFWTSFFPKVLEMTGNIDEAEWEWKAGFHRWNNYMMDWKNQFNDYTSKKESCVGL

3′-methyl-carbamoyl eseroline
selectivity of inhibitory action for BChE versus AChE (human plasma BChE): does not provide BChE selectivity

CNC(=O)Oc1ccc2c(c1)[C@]1(C)CCN(C)C1N2 (stereo partly drawn) [Compound 34, N^8-norphysostigmine]
selectivity of inhibitory action for BChE versus AChE (human plasma BChE): potent and selective inhibitors of BChE

C=CCN1CCC2(C)c3cc(OC(=O)NC)ccc3N(C)C12 (stereo not drawn) [Compound 20, N^1-allylnorphysostigmine]
selectivity of inhibitory action for BChE versus AChE (human plasma BChE): provide BChE selectivity

Nc1c2c(nc3ccccc13)CCCC2 [tacrine]
secretion of βAPP [1]: reducing it

CNC(=O)Oc1ccc2c(c1)[C@]1(C)CCO[C@@H]1N2C [Compound 26, physovenine]
selectivity of inhibitory action for BChE versus AChE (human plasma BChE): selectivity of inhibitory action for BChE

COP(=O)(OC)C(O)C(Cl)(Cl)Cl (stereo not drawn) [metrifonate]
secretion of βAPP [1]: none of the other drugs, all classical anticholinesterases, produced a change

CNC(=O)Oc1ccc2c(c1)C1(C)CCN(C)C1N2Cc1ccccc1 (stereo not drawn) [Compound 30, N^8-benzylnorphysostigmine]
selectivity of inhibitory action for BChE versus AChE (human plasma BChE): potent and selective inhibitors of BChE

CC(C)c1ccc(NC(=O)Oc2ccc3c(c2)[C@]2(C)CCN(C)[C@@H]2N3C)cc1 [Compound 4, cymserine]
brain levels relative to plasma levels ([2]; 1 mg/kg by the intravenous route): ~40 fold
crossing of the blood-brain barrier ([2]; systemic administration): readily cross the blood-brain barrier
selectivity of inhibitory action for BChE versus AChE (human plasma BChE): selectivity for BChE inhibition
errors across all trials ([3]; 1 mg kg group vs controls): significantly improved performance
shock duration ([3]; 1.0 mg kg, block 2): significantly reduced
run time [3, 6]: significantly reduced
shock duration [3, 6]: significantly reduced
shock frequency [3, 6]: significantly reduced
errors across all trials ([3]; 2 mg kg group vs controls): significantly improved performance
run time ([3]; 2.0 mg kg, block 4): significantly reduced
shock duration ([3]; 2.0 mg kg, block 4): significantly reduced
shock frequency ([3]; 2.0 mg kg, block 4): significantly reduced
errors in the Stone maze ([3]; 3 mg kg dose): least effective
motoric side effects ([3]; 3 mg kg dose, a few rats): fine tremor
shock duration ([3]; 3.0 mg kg, block 4): significantly different from controls
number of errors made in the Stone maze ([3]; all doses, compared with control condition): significantly reduced
learning / cognitive performance of aged rats in the Stone maze ([3]; chronic treatment (5 days)): improves cognitive performance; also recorded: markedly improved
side effects ([3]; doses other than 3 mg kg): no side effects were noted
effects of drug treatment during pretraining ([4]; all dose groups vs control): No effects
mean (s.e.m.) avoidances ([4]; 1 mg kg cymserine group): 65% (2.8)
mean (s.e.m.) avoidances ([4]; 2 mg kg cymserine group): 63% (3.8)
mean (s.e.m.) avoidances ([4]; 3 mg kg cymserine group): 61% (3.9)
cellular levels of βAPP ([5]; cell lysates, compared to untreated cells): dramatically reduced
secreted βAPP levels ([5]; conditioned medium, compared to untreated cells): reduced
βAPP levels assessed by mAb22C11 and 6E10 ([5]; immunoblot, FIG. 2): dramatically reduce
effect on other secretory proteins, such as HSP-70 ([5]; immunoblot, selectivity control): without affecting
levels of βAPP in CSF (secreted βAPP in CSF; animals without cholinergic lesions, cymserine alone versus pure control rats): reduced
elevation of secreted βAPP in CSF (secreted βAPP in CSF; rats with forebrain cholinergic lesions, intraperitoneal twice daily for 7 days): blocks the elevation
CSF βAPPγ levels (secreted βAPP in CSF; rats, FIG. 3 legend): reduces

Nc1ccncc1N [3,4 diaminopyridine]
secretion of βAPP [1]: none of the other drugs, all classical anticholinesterases, produced a change

Cc1ccccc1NC(=O)Oc1ccc2c(c1)[C@]1(C)CCN(C)[C@@H]1N2C [Compound 3, tolserine, reference compound]
selectivity of inhibitory action for BChE versus AChE (human plasma BChE): no selectivity for BChE

CNC(=O)Oc1ccc2c(c1)[C@]1(C)CCS[C@@H]1N2C [Compound 22, thiaphysovenine]
selectivity of inhibitory action for BChE versus AChE (human plasma BChE): selectivity of inhibitory action for BChE
